In patent publication US10583098B2, “Topical co-enzyme Q10 formulations and treatment of pain, fatigue and wounds” (priority 2006, dated 2020):

Key:
Format in all cases: cell-based
[1] = tested on: Human Aortic Smooth Muscle Cells (HASMC); assay: ATP production in HASMC, Luciferin-Luciferase ATP assay; details: 0-20 μg/ml, 24 h, in words
Description: We have investigated the effect of Q10 on ATP production in Human Aortic Smooth Muscle Cells (HASMC). This cell line was chosen for the study based on its ability to produce ATP at levels detectable by the Luciferin-Luciferase ATP assay. We also studied the effect of The composition comprising about 0.001% to about 60% (w/w) Coenzyme Q10 on Muscle Cell proliferation.
(§1) D-(+)-Glucose at 10 mM (Peiro et al., Brit. Jour. of Pharmacology 133: 967-974 (2001)) was used as an energy substrate for the production of ATP. The wells of the 6-well plate were incubated with 0-20 μg/ml of CoQ10, 1 μg and 20 μg/ml CoQ10, or 1 μg and 20 μg/ml of the Vehicle of Coenzyme Q10, all in Medium 231. The well plates were incubated at 37° C. and 5% CO2 for specified experimental periods. Medium 231 contains 4.6 mM Glu originally, thus only an additional 5.4 mM added to medium (Dr. Gary D. Shipley, Cascade Biologics, Portland, Oreg.).
After incubation, the medium was removed and replaced with cold (4° C.) 1% w/v Trichloroacetic Acid (TCA) as the lysis buffer. This buffer causes almost instantaneous inhibition of ATPases (Kangas et al., Med Biol 62: 338-343 (1984)). The wells were incubated with TCA at room temperature for 5 min with gentle swirling. […]
HASM Cells were incubated at 37° C. and 5% CO2 with 0-20 μg/ml Coenzyme Q10. […] Samples were then taken for quantification of ATP using the Luciferin-Luciferase ATP Assay. […]

[2] = tested on: Human neonatal fibroblasts (nFIB); assay: In vitro incisional wound model, fibroblast migration; details: versus control, in words
Description: (§2) The proliferation and migration of keratinocytes and fibroblasts are paramount to the restoration of the cutaneous architecture. […] To test the effect of Q10 on neonatal fibroblasts and keratinocytes, an in vitro incisional wound model was employed. Cells were seeded in 6-well tissue culture plates with supplemented media and incubated for 48 hours to facilitate a 90% confluency level prior to experimentation. A cross-shaped “wound” gap was made among the near confluent monolayer of cells in the center of each well. Detached cells were then washed off with medium. Each well was then replenished with medium with or without Q10. […] Cell migration was quantified by time and percentage of “wound” gap covered by cells that migrated into the gap field. The percentage of gap filled (PGf) was calculated as PGf=(1−At/A0)×100, where At is the gap area at time t, and A0 is the gap area at time 0. […]
(§3) Human neonatal fibroblasts (nFIB) and human neonatal keratinocytes (SC-KC) were grown to ˜90% confluency in T-75 flasks at which time they were trypsinized and seeded into 6-well tissue culture plates. […] Cell migration was quantified by time and percentage of “wound” gap covered by cells that migrated into the gap field. The percentage of gap filled (PGf) was calculated as PGf=(1−At/A0)×100, where A(t) is the gap area at time t, and A(0) is the gap area at time 0. […]

[3] = tested on: Human Aortic Smooth Muscle Cells (HASMC); assay: HASMC proliferation, Coulter cell count; details: for Cell number: 24 h incubation, HASMC; for % Diff vs. Ctrl (24 hr): HASMC cell number
Description: At approximately 80% confluency, the cells were subcultured using Trypsin-EDTA to detach the cells and Defined Trypsin Inhibitor, DTI to neutralize the cell suspension before centrifugation at 2500 RPM for 8 minutes. The supernatant was aspirated and discarded. The resultant cell pellet was then resuspended in fresh Medium 231. A cell count was performed using a hemocytometer before seeding the experimental 6-well plates at 200,000 cells/well.
Q10 was dissolved in ethanol and the solution was diluted with Medium 231 to the required concentrations. The Vehicle used in preparing the composition comprising about 0.001% to about 60% (w/w) Coenzyme Q10 was composed of MCT, BHT, Glycerol, and Sodium Phosphate buffered to pH 7.2 and subjected to sonication, then diluted with Medium 231 to experimental concentrations.
as §1
The well-plates were decanted to empty the wells of the reagents and any residue was aspirated carefully with an electronic pipettor. 0.5 ml Trypsin-EDTA was added to each well for 5-7 minutes to aid detachment. Upon complete detachment as determined under a microscope, 0.5 ml Medium 231 was added to the resultant cell suspension to neutralize the Trypsin. 0.5 ml of this cell suspension was taken for reading in a Coulter cell counter.
In FIG. 2, HASM Cells were incubated at 37° C. and 5% CO2 with 0-20 μg/ml Coenzyme Q10, The composition comprising about 0.001% to about 60% (w/w) Coenzyme Q10, and the Vehicle(V) used in The composition comprising about 0.001% to about 60% (w/w) Coenzyme Q10. The 6-well plates were incubated for 24 h in Medium 231. After treatment with Trypsin-EDTA and gentle scraping, cells were neutralized with Medium 231 and mixed by pipetting. Samples were then taken for quantification using a Coulter cell counter. (*Significant compared to Ctrl, P<0.05; One-way ANOVA and Dunnett's).

[4] = tested on: human neonatal keratinocytes (SC-KC); assay: Keratinocyte proliferation; details: in words
Excerpt: (§4) FIGS. 7-10 show the results obtained.

[5] = tested on: Human neonatal fibroblasts (nFIB); assay: Fibroblast proliferation; details: in words
Excerpt: as §4

[6] = tested on: human neonatal keratinocytes (SC-KC); assay: In vitro incisional wound model, keratinocyte migration; details: versus control, in words
Description: as §2, §3

COC1=C(OC)C(=O)C(C/C=C(\C)CC/C=C(\C)CC/C=C(\C)CC/C=C(\C)CC/C=C(\C)CC/C=C(\C)CC/C=C(\C)CC/C=C(\C)CC/C=C(\C)CCC=C(C)C)=C(C)C1=O [Q-10, 2,3-dimethoxy-5-methyl-6-decaprenyl-1,4-benzoquinone]
Effect on ATP production [1]: increases ATP production
Effect on ATP production ([1]; listed as Coenzyme Q10): stimulatory effect on ATP production
Fibroblast migration (rate of gap coverage) [2]: statistically significant increase in the rate of gap coverage
Fibroblast migration (rate of gap coverage) ([2]; listed as coenzyme Q10): enhances the migration and proliferation
Cell number ([3]; 1.0 μg/ml): 42.4 10^4
% Diff vs. Ctrl (24 hr) ([3]; 1.0 μg/ml): 65.1%
Cell number ([3]; 20.0 μg/ml): 63.1 10^4
% Diff vs. Ctrl (24 hr) ([3]; 20.0 μg/ml): 145.6%
Keratinocyte proliferation [4]: enhances the migration and proliferation
Fibroblast proliferation [5]: enhances the migration and proliferation
Keratinocyte migration (rate of gap coverage) [6]: statistically significant increase in the rate of gap coverage
Keratinocyte migration (rate of gap coverage) ([6]; listed as coenzyme Q10): enhances the migration and proliferation
